Reference: US20250026752A1, “POSITIVE ALLOSTERIC MODULATORS OF THE MUSCARINIC ACETYLCHOLINE RECEPTOR M4” (Vanderbilt University, priority 2021, published 2025)

What was measured:
[1] = target: T1, human mAChR M4 (Homo sapiens, UniProt P08173); test: mAChR M4 cell-based functional assay: calcium flux (Fluo-4, FDSS), positive allosteric modulator activity on the EC20 acetylcholine response, hM4-Gqi5 CHO-K1 cells; details: for Emax at 30 µM: CHO-K1, human M4, % ACh maximum at 30 μM; for EC50: human M4, PAM activity on EC20 acetylcholine response, calcium flux, read-out: Human M4 EC50
T1 construct: expressed in transfected cells; host or cells: CHO-K1 (ATCC), stably expressing hM4 and Gqi5
T1 sequence (P08173 1-479): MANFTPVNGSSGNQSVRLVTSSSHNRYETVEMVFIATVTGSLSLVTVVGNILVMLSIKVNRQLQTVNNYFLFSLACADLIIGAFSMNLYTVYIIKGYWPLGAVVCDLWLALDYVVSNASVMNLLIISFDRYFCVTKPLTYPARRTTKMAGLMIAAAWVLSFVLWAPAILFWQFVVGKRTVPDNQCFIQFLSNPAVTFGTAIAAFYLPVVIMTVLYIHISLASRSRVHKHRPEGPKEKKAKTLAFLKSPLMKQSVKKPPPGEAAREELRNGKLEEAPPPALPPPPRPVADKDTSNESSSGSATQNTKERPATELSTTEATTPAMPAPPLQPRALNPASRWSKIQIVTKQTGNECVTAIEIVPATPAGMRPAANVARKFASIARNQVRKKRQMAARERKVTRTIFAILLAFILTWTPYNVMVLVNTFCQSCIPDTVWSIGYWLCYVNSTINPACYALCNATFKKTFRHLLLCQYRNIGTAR
Procedure, shortened: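 Potentiation was taken as the concentration-dependent rise in the EC20 acetylcholine calcium response, fitted by a four-parameter logistic with EC20 as baseline. Fluo-4-loaded hM4-Gqi5 CHO-K1 cells received 11-point, threefold-diluted compound before acetylcholine at 144 s; FDSS read at 1 Hz.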

[2] = hepatotoxicity of AChE inhibitors; cited from earlier work
[3] = Alzheimer's disease patients; cited from earlier work
[4] = without causing catalepsy; cited from earlier work

Cc1ccc2ncnc(N3CCc4ncc(-c5ccccc5C)cc4C3)c2c1 [Compound 298, 6-methyl-4-(3-(o-tolyl)-7,8-dihydro-1,6-naphthyridin-6(5H)-yl)quinazoline]
Emax at 30 µM [1]: 100%
EC50 [1]: 1.3 µM

Cc1ccc2ncnc(N3CCc4ncc(-c5cc(F)ccc5C)cc4C3)c2c1 [Compound 299, 4-(3-(5-fluoro-2-methylphenyl)-7,8-dihydro-1,6-naphthyridin-6(5H)-yl)-6-methylquinazoline]
Emax at 30 µM [1]: 94%
EC50 [1]: 1.2 µM

Cc1ccccc1-c1cnc2c(c1)CN(c1ncnc3ccc(Cl)cc13)CC2 [Compound 300, 6-chloro-4-(3-(o-tolyl)-7,8-dihydro-1,6-naphthyridin-6(5H)-yl)quinazoline]
Emax at 30 µM [1]: 96%
EC50 [1]: 3.6 µM

Cc1ccc(F)cc1-c1cnc2c(c1)CN(c1ncnc3ccc(Cl)cc13)CC2 [Compound 301, 6-chloro-4-(3-(5-fluoro-2-methylphenyl)-7,8-dihydro-1,6-naphthyridin-6(5H)-yl)quinazoline]
Emax at 30 µM [1]: 94%
EC50 [1]: 3.06 µM

Cc1nc(N2CCc3ncc(-c4ccccc4C)cc3C2)c2cc(Cl)ccc2n1 [Compound 302, 6-chloro-2-methyl-4-(3-(o-tolyl)-7,8-dihydro-1,6-naphthyridin-6(5H)-yl)quinazoline]
Emax at 30 µM [1]: 94%
EC50 [1]: 5.37 µM

Cc1nc(N2CCc3ncc(-c4cc(F)ccc4C)cc3C2)c2cc(Cl)ccc2n1 [Compound 303, 6-chloro-4-(3-(5-fluoro-2-methylphenyl)-7,8-dihydro-1,6-naphthyridin-6(5H)-yl)-2-methylquinazoline]
Emax at 30 µM [1]: 91%
EC50 [1]: 9.2 µM

Cc1cc(F)ncc1-c1cnc2c(c1)CN(c1ncnc3ccc(F)cc13)CC2 [Compound 304, 6-fluoro-4-(3-(6-fluoro-4-methylpyridin-3-yl)-7,8-dihydro-1,6-naphthyridin-6(5H)-yl)quinazoline]
Emax at 30 µM [1]: 95%
EC50 [1]: 0.08 µM

Cc1nc(N2CCc3ncc(-c4cnc(F)cc4C)cc3C2)c2cc(F)ccc2n1 [Compound 305, 6-fluoro-4-(3-(6-fluoro-4-methylpyridin-3-yl)-7,8-dihydro-1,6-naphthyridin-6(5H)-yl)-2-methylquinazoline]
Emax at 30 µM [1]: 92%
EC50 [1]: 0.13 µM

Cc1cc(F)c(F)cc1-c1cnc2c(c1)CN(c1ncnc3ccc(F)cc13)CC2 [Compound 306, 4-(3-(4,5-difluoro-2-methylphenyl)-7,8-dihydro-1,6-naphthyridin-6(5H)-yl)-6-fluoroquinazoline]
Emax at 30 µM [1]: 69%
EC50 [1]: 5.5 µM

Cc1nc(N2CCc3ncc(-c4cc(F)c(F)cc4C)cc3C2)c2cc(F)ccc2n1 [Compound 307, 4-(3-(4,5-difluoro-2-methylphenyl)-7,8-dihydro-1,6-naphthyridin-6(5H)-yl)-6-fluoro-2-methylquinazoline]
Emax at 30 µM [1]: 54%
EC50 [1]: 3.73 µM

COc1ccc2ncnc(N3CCc4ncc(-c5cnc(F)cc5C)cc4C3)c2c1 [Compound 308, 4-(3-(6-fluoro-4-methylpyridin-3-yl)-7,8-dihydro-1,6-naphthyridin-6(5H)-yl)-6-methoxyquinazoline]
Emax at 30 µM [1]: 71%
EC50 [1]: 0.11 µM

Cc1ccc2ncnc(N3CCc4ncc(-c5cnc(F)cc5C)cc4C3)c2c1 [Compound 309, 4-(3-(6-fluoro-4-methylpyridin-3-yl)-7,8-dihydro-1,6-naphthyridin-6(5H)-yl)-6-methylquinazoline]
Emax at 30 µM [1]: 83%
EC50 [1]: 0.04 µM

Cc1cc(F)ncc1-c1cnc2c(c1)CN(c1ncnc3ccc(Cl)cc13)CC2 [Compound 310, 6-chloro-4-(3-(6-fluoro-4-methylpyridin-3-yl)-7,8-dihydro-1,6-naphthyridin-6(5H)-yl)quinazoline]
Emax at 30 µM [1]: 86%
EC50 [1]: 0.06 µM

Cc1nc(N2CCc3ncc(-c4cnc(F)cc4C)cc3C2)c2cc(Cl)ccc2n1 [Compound 311, 6-chloro-4-(3-(6-fluoro-4-methylpyridin-3-yl)-7,8-dihydro-1,6-naphthyridin-6(5H)-yl)-2-methylquinazoline]
Emax at 30 µM [1]: 77%
EC50 [1]: 0.18 µM

COc1ccc2nc(C)nc(N3CCc4ncc(-c5cnc(F)cc5C)cc4C3)c2c1 [Compound 312, 4-(3-(6-fluoro-4-methylpyridin-3-yl)-7,8-dihydro-1,6-naphthyridin-6(5H)-yl)-6-methoxy-2-methylquinazoline]
Emax at 30 µM [1]: 76%
EC50 [1]: 0.15 µM

COc1ccc2nc(C)nc(N3CCc4ncc(-c5cc(F)ccc5C)cc4C3)c2c1 [Compound 313, 4-(3-(5-fluoro-2-methylphenyl)-7,8-dihydro-1,6-naphthyridin-6(5H)-yl)-6-methoxy-2-methylquinazoline]
Emax at 30 µM [1]: 52%
EC50 [1]: 4.36 µM

COc1ccc2nc(C)nc(N3CCc4ncc(-c5ccccc5C)cc4C3)c2c1 [Compound 314, 6-methoxy-2-methyl-4-(3-(o-tolyl)-7,8-dihydro-1,6-naphthyridin-6(5H)-yl)quinazoline]
Emax at 30 µM [1]: 77%
EC50 [1]: 4.67 µM

Fc1ccc2ncnc(N3CCc4ncc(Nc5ccncc5F)cc4C3)c2c1 [Compound 315, N-(3-fluoropyridin-4-yl)-6-(6-fluoroquinazolin-4-yl)-5,6,7,8-tetrahydro-1,6-naphthyridin-3-amine]
Emax at 30 µM [1]: 81%
EC50 [1]: 0.01 µM

Cc1ccc2nc(C)nc(N3CCc4ncc(-c5ccccc5C)cc4C3)c2c1 [Compound 316, 2,6-dimethyl-4-(3-(o-tolyl)-7,8-dihydro-1,6-naphthyridin-6(5H)-yl)quinazoline]
Emax at 30 µM [1]: 93%
EC50 [1]: 1.6 µM

Cc1ccc2nc(C)nc(N3CCc4ncc(-c5cc(F)ccc5C)cc4C3)c2c1 [Compound 317, 4-(3-(5-fluoro-2-methylphenyl)-7,8-dihydro-1,6-naphthyridin-6(5H)-yl)-2,6-dimethylquinazoline]
Emax at 30 µM [1]: 91%
EC50 [1]: 2.8 µM

Cc1ccc2nc(C)nc(N3CCc4ncc(-c5cnc(F)cc5C)cc4C3)c2c1 [Compound 318, 4-(3-(6-fluoro-4-methylpyridin-3-yl)-7,8-dihydro-1,6-naphthyridin-6(5H)-yl)-2,6-dimethylquinazoline]
Emax at 30 µM [1]: 92%
EC50 [1]: 0.07 µM

Fc1ccc2ncnc(N3CCc4ncc(N5CCc6ncccc65)cc4C3)c2c1 [Compound 319, 4-(3-(2,3-dihydro-1H-pyrrolo[3,2-b]pyridin-1-yl)-7,8-dihydro-1,6-naphthyridin-6(5H)-yl)-6-fluoroquinazoline]
Emax at 30 µM [1]: 74%
EC50 [1]: 0.03 µM

Nc1c2c(nc3ccccc13)CCCC2 [tacrine]
elevated liver transaminases observed in patients [2]: about 30 % of patients

CCCCCCOc1nsnc1C1=CCCN(C)C1 [xanomeline]
effect on psychotic behavioral symptoms (delusions, suspiciousness, vocal outbursts, hallucinations) [3]: reduce psychotic behavioral symptoms
activity in animal models with profiles similar to known antipsychotic drugs [4]: active in animal models
